Literature values, collected in patent US7109191B2, “Benzazepinone alpha vintegrin receptor antagonists” (Merck & Co., Inc., priority 2001, dated 2006).

Tested on: postmenopausal osteoporotic women
Conditions: after a median of 22 months of treatment

hPTH(1–34): human parathyroid hormone 1–34 fragment (SVSEIQLMHNLGKHLNSMERVEWLRKKLQDVHNF; Parathyroid hormone; UniProt P01270 32-65, looked up, fragment)
reduction in nonvertebral fractures: 54%
reduction in spine fractures: ≥ 65%
